# Test results taken from patent US20070203079A1, “Methods of using small molecule compounds for neuroprotection” (priority 2005, published 2007).
# Counter-ions that a name gives are not always drawn.
# Legend:
# Assay type in all cases: in vivo, C. elegans
# [1] = test system: Pdat-1::GFP+Pdat-1::torsinA (ΔE) worms (mutant torsinA); test: 6-OHDA dopaminergic neurodegeneration in worms with mutant torsinA
# Experimental: (§1) C. elegans nematodes were grown at 25° C. on NGM plates as described by Brenner (Brenner, Genetics, 1974, 77: 71-94). Two transgenic C. elegans lines were used for primary screens of the Prestwick small molecule library. A transgenic worm line expressing Pdat-1::GFP; with both wild type (Pdat-1::torsinA) or mutant (Pdat-1:::torsinA(ΔE)). Torsin-A expresses a phenotype that results in visible neurodegeneration after treatment with 6-OHDA. Transgenic worms were plated on drug plates and progeny were studied for morphological changes in the 8 dopaminergic neurons present in C. elegans.
# (§2) Drugs were administered to C. elegans according to a standard procedure (Rand and Johnson, Methods Cell Biol, 1995, 48: 187-204) by mixing the solubilized drug with the agar medium on which the worms are grown. […]
# (§3) Age-synchronized worms were obtained by treating gravid adults with 2% sodium hypochlorite and 0.5M NaOH to isolate embryos (Lewis Fleming, 1995). […] The worms were then washed and spread onto NGM plates seeded with bacteria (OP50) and scored at time points ranging from 2 to 72 h after 6-OHDA exposure.
# (§4) Immediately after 6-OHDA treatment, worms containing the transgenes were selected under a fluorescence dissecting microscope, based on the presence of GFP, and transferred to a fresh NGM plate seeded with OP50. […] For ease of analysis, only the four CEP DA neurons in the head of the worm were scored. […]
# [2] = test system: Pdat-1::GFP+Pdat-1::torsinA worms (wt torsinA); test: 6-OHDA dopaminergic neurodegeneration in worms with wt torsinA
# Experimental: as §1, §2, §3, §4
# [3] = test system: worms expressing Punc-54::Q82::GFP+Punc-54::torsinA with wt torsinA only; test: Protein aggregate assay in worms with wt torsinA only
# Experimental: C elegans nematodes were grown at 20° C. on NGM plates as described by Brenner (Brenner, Genetics, 1974, 77: 71-94). Several transgenic C. elegans lines were used for primary screens of the Prestwick small molecule library. A transgenic worm line expressing Punc-54::Q82-GFP; with both wild type (“wt”) (Punc=54: :torsinA) or mutant (Punc-54::torsinA(ΔE)). Torsin-A expresses a phenotype that results in visible protein aggregation under fluorescent microscope. Transgenic worms were plated on drug plates and progeny were studied for a return to soluble protein.
# Drugs were administered to C. elegans according to a standard procedure (Rand and Johnson, Methods Cell Biol, 1995, 48: 187-204), by mixing the solubilized drug with the agar medium on which the worms are grown. This mode of administration allows the continuous exposure of worms to the drug.
# Each drug was first dissolved in an appropriate solvent, followed by adding the drug solution into pre-autoclaved media, with the volume of drug solution already taken into account. […]
# The screening assays used to identify the compounds use protein aggregation readouts to determine the specificities of molecular action. […]
# The methods for the aggregate analysis assay are described in Caldwell et al. (Hum Mol Genetics, 2003, 12(3): 307-319). […] MetaMorph Software (Universal Imaging Inc.) was used for pseudocoloration of images, image overlay, and aggregate size quantitation. For each worm line analyzed, average aggregate size was determined by capturing images of all aggregates in the posterior region of 30 L3-staged animals (for Q82::GFP aggregates) or all aggregates in 30 adult animals/day (for Q19::GFP analyses) at 1000× magnification. […]
# To see the effect of the candidate compounds on suppressing protein misfolding and aggregation, five gravid adult worms were placed onto each drug plate and grown at 20° C. for approximately 3 days. Thirty Fl worms at L3 stage and young adult stage were counted for aggregate number.
# [4] = test system: Pdat-1::GFP+Pdat-1::α-synuclein+Pdat-1::torsinA worms; test: α-synuclein toxicity assay, wt torsinA
# Procedure, shortened: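 C. elegans lines expressing GFP and α-synuclein in dopamine neurons, with wild-type or ΔE torsinA, exposed to compounds; readout is the share of worms keeping all 4 wild-type CEP dopamine neurons as 4-day adults.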
smiles,measurement,setting,value
"C=N[C@@H](C(=O)N[C@@H]1C(=O)N2[C@@H]1SC(C)(C)[C@@H]2C(=O)O)c1ccccc1 [Compound 235, Metampicillin sodium salt]",neuroprotection against 6-OHDA insult,[1],not protected
same,neuroprotection against 6-OHDA insult,"[2]; listed as Metampicillin, sodium salt",provides neuroprotection
same,neuroprotection against 6-OHDA insult,[2]; listed as metampicillin sodium salt,only afforded in Pdat-1::GFP+Pdat-1::torsinA worms expressing wt torsinA
same,reduction of protein aggregation,[3],reduced protein aggregation
same,enhanced wild type DA neuron survival,[4],30.3±7%
